Assay results taken from the supplement of paper PMC10307832.

Experiments:
Experiment in all cases: relative viability (nuclei count vs DMSO), 5 days (fraction); higher = more cells survive
[1] = compound: CO[C@@H]1[C@H](N(C)C(=O)c2ccccc2)C[C@H]2O[C@]1(C)n1c3ccccc3c3c4c(c5c6ccccc6n2c5c31)C(=O)NC4 [Midostaurin] + CC(=O)c1c(C)c2cnc(Nc3ccc(N4CCNCC4)cn3)nc2n(C2CCCC2)c1=O [Palbociclib] (partner 0.5 µM)
Summary of the method: (§1)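 Relative viability was taken as the ratio of nuclei in treated wells to nuclei in vehicle wells. Lung cancer cell lines in 1536-well plates received compounds by pin tool one day after seeding, either one drug alone or a fixed anchor-drug dose plus five library-drug doses (not always all listed) in √10 steps. Nuclei were counted on 4× images after 5 days of treatment, and values are medians of duplicate plates.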

Midostaurin + Dasatinib = compound: CO[C@@H]1[C@H](N(C)C(=O)c2ccccc2)C[C@H]2O[C@]1(C)n1c3ccccc3c3c4c(c5c6ccccc6n2c5c31)C(=O)NC4 [Midostaurin] + Cc1nc(Nc2ncc(C(=O)Nc3c(C)cccc3Cl)s2)cc(N2CCN(CCO)CC2)n1 [Dasatinib] (partner 0.075 µM)
Summary of the method: as §1

[2] = compound: COc1cc(-c2nn([C@H]3CC[C@H](N4CCN(C(C)=O)CC4)CC3)c3ncnc(N)c23)ccc1NC(=O)c1cc2ccccc2n1C + CC(=O)c1c(C)c2cnc(Nc3ccc(N4CCNCC4)cn3)nc2n(C2CCCC2)c1=O [Palbociclib] (partner 0.5 µM)
Summary of the method: as §1

[3] = compound: COc1cc(-c2nn([C@H]3CC[C@H](N4CCN(C(C)=O)CC4)CC3)c3ncnc(N)c23)ccc1NC(=O)c1cc2ccccc2n1C + COc1cc2c(Oc3ccc(NC(=O)C4(C(=O)Nc5ccc(F)cc5)CC4)cc3F)ccnc2cc1OCCCN1CCOCC1 [Foretinib] (partner 0.25 µM)
Summary of the method: as §1

[4] = compound: COc1cc(-c2nn([C@H]3CC[C@H](N4CCN(C(C)=O)CC4)CC3)c3ncnc(N)c23)ccc1NC(=O)c1cc2ccccc2n1C + CS(=O)(=O)N1CCN(Cc2cc3nc(-c4cccc5[nH]ncc45)nc(N4CCOCC4)c3s2)CC1 [Pictilisib] (partner 1 µM)
Summary of the method: as §1

Cell Line	relative viability ([1]; first compound 0.01 µM)	relative viability ([1]; first compound 0.03162 µM)	relative viability ([1]; first compound 0.1 µM)	relative viability ([1]; first compound 0.3162 µM)	relative viability (Midostaurin + Dasatinib; first compound 0.01 µM)	relative viability (Midostaurin + Dasatinib; first compound 0.03162 µM)	relative viability (Midostaurin + Dasatinib; first compound 0.1 µM)	relative viability (Midostaurin + Dasatinib; first compound 0.3162 µM)	relative viability ([2]; first compound 0.0128 µM)	relative viability ([2]; first compound 0.04048 µM)	relative viability ([2]; first compound 0.128 µM)	relative viability ([2]; first compound 1.28 µM)	relative viability ([3]; first compound 0.0128 µM)	relative viability ([3]; first compound 0.04048 µM)	relative viability ([3]; first compound 0.128 µM)	relative viability ([3]; first compound 1.28 µM)	relative viability ([4]; first compound 0.0128 µM)	relative viability ([4]; first compound 0.04048 µM)	relative viability ([4]; first compound 0.128 µM)	relative viability ([4]; first compound 1.28 µM)
BEN	0.515	0.473	0.52	0.467	0.371	0.32	0.405	0.379	0.485	0.466	0.435	0.457	0.502	0.642	0.602	0.45	0.559	0.54	0.58	0.432
NCI-H1666	0.634	0.669	0.661	0.657	0.864	0.709	0.716	0.772	0.678	0.661	0.6	0.622	0.971	0.881	0.957	0.947	0.521	0.367	0.394	0.397
LC-2-ad	0.482	0.53	0.536	0.566	0.476	0.582	0.579	0.537	0.543	0.508	0.502	0.511	0.932	0.976	0.886	0.662	0.606	0.009	0.455	0.311
SK-LU-1	0.404	0.409	0.379	0.399	0.198	0.191	0.176	0.175	0.41	0.369	0.357	0.249	0.769	0.798	0.691	0.376	0.54	0.488	0.498	0.269
ChaGo-K-1	0.912	1	0.889	0.935	0.509	0.584	0.541	0.689	0.925	0.985	0.873	0.668	0.994	0.897	0.892	0.742	0.66	0.669	0.587	0.644
COR-L 105	0.414	0.416	0.396	0.4	0.351	0.396	0.385	0.285	0.388	0.474	0.4	0.302	1.04	1.34	0.994	0.598	0.417	0.427	0.321	0.243
NCI-H1975	0.524	0.65	0.564	0.583	0.381	0.374	0.326	0.296	0.534	0.541	0.513	0.23	0.887	0.912	0.918	0.481	0.322	0.31	0.234	0.149
NCI-H1993	0.495	0.802	0.794	0.656	0.65	0.608	0.668	0.419	0.616	0.58	0.617	0.605	0.747	0.743	0.784	0.556	0.845	0.899	0.826	0.775
RERF-LC-KJ	0.993	1.08	1.13	1.02	0.848	0.934	0.876	0.709	1.08	1.19	1.07	0.972	0.867	0.957	0.838	0.864	0.572	0.557	1.11	0.538
NCI-H23	0.49	0.506	0.377	0.309	0.88	0.659	0.559	0.523	0.47	0.519	0.508	0.4	1.22	1.03	0.797	0.651	0.36	0.298	0.403	0.457
HCC-366	0.364	0.409	0.389	0.384	0.634	0.583	0.537	0.638	0.485	0.431	0.403	0.256	0.948	0.841	0.98	0.757	0.09	0.129	0.161	0.141
EMC-BAC-2	0.489	0.531	0.489	0.456	0.358	0.372	0.273	0.248	0.551	0.582	0.528	0.514	1.06	1.05	0.968	0.617	0.547	0.501	0.504	0.494
NCI-H2405	0.534	0.575	0.521	0.51	0.216	0.199	0.212	0.201	0.551	0.396	0.486	0.269	1.09	0.855	1.04	0.535	0.422	0.26	0.303	0.258
NCI-H358	0.123	0.134	0.114	0.136	0.177	0.124	0.15	0.208	0.145	0.137	0.126	0.115	0.766	0.626	0.685	0.279	0.395	0.331	0.277	0.249
NCI-H1944	0.36	0.402	0.318	0.35	0.222	0.227	0.234	0.222	0.352	0.32	0.363	0.203	0.87	0.786	0.832	0.61	0.362	0.301	0.327	0.285
EPLC-272H	0.291	0.355	0.302	0.3	0.381		0.422	0.351	0.352	0.327	0.337	0.301	0.78		0.705	0.37	0.369	0.258	0.29	0.311
NCI-H1915	0.451	0.523	0.531	0.524	0.359	0.334	0.29	0.331	0.578	0.441	0.495	0.44	1.14	1.03	1.06	0.844	0.968	0.532	0.939	0.879
NCI-H322M	0.475	0.483	0.528	0.559	0.272	0.233	0.258	0.332	0.426	0.516	0.434	0.394	1.03	1.11	0.878	0.785	0.521	0.449	0.51	0.463
NCI-H2228	0.569	0.954	0.842	0.845	0.501	0.622	0.534	0.526	0.761	0.672	0.772	0.522	0.92	1.05	0.825	0.622	0.408	0.275	0.337	0.375
NCI-H647	0.462	0.396	0.485	0.465	0.181	0.209	0.134	0.103	0.391	0.382	0.4	0.216	1.16	1.44	1.21	0.806	0.41	0.456	0.257	0.28
SK-MES-1	0.326	0.359	0.27	0.246	0.309	0.36	0.393	0.237	0.298	0.374	0.319	0.277	0.894	1.14	0.986	1	0.343	0.402	0.361	0.221
NCI-H2170	0.394	0.397	0.406	0.454	0.572	0.55	0.512	0.735	0.445	0.396	0.383	0.327	1.09	1.01	0.991	0.97	0.297	0.353	0.334	0.248
NCI-H2085	0.497	0.467	0.491	0.494	0.29	0.273	0.26	0.236	0.491	0.48	0.455	0.441	1.12	0.876	0.834	0.691	0.532	0.484	0.381	0.458
SW 1573	0.422	0.504	0.424	0.247	0.534	0.548	0.456	0.161	0.393	0.388	0.172	0.347	0.808	0.869	0.887	0.728	0.496	0.497	0.497	0.362
NCI-H727	0.628	0.666	0.66	0.634	0.363	0.41	0.462	0.383	0.615		0.553	0.583	0.915		0.831	0.587	0.355		0.401	0.301
NCI-H441	0.265	0.219	0.234	0.189	0.677	0.533	0.552	0.405	0.248	0.167	0.228	0.152	1.09	1.29	0.998	0.89	0.551	0.43	0.602	0.421
LOU-NH91	0.514	0.527	0.499	0.552	0.594	0.534	0.606	0.582	0.536	0.533	0.529	0.454	0.991	0.99	0.968	0.922	0.517	0.555	0.511	0.509
NCI-H3122	0.156	0.241	0.197	0.229	0.779	0.698	0.731	0.978	0.197		0.169	0.189	1.02		0.877	0.777	0.552		0.548	0.484
NCI-H460	0.13	0.195	0.183	0.0929	0.576	0.493	0.478	0.553	0.17	0.133	0.148	0.153	1	1.13	0.916	0.975	0.164	0.314	0.345	0.368
NCI-H650	0.347	0.34	0.318	0.313	0.401	0.406	0.385	0.315	0.35	0.385	0.3	0.339	1.02	1.24	1.07	1.02	0.944	0.96	0.944	0.866
